Test results reported in ChEMBL document CHEMBL3046232, “Synthesis, pharmacological evaluation and molecular docking studies of indanone derivatives” (2012).

Experiments:
Format in all cases: functional
Bacillus subtilis [1] = assay: Antimicrobial activity against at Bacillus subtilis at 100 ug/ml by cup plate method; conditions: read-out: IZ
Bacillus subtilis [2] = assay: Antimicrobial activity against at Bacillus subtilis at 50 ug/ml by cup plate method; conditions: read-out: IZ
Bacillus subtilis [3] = assay: Antimicrobial activity against at Bacillus subtilis at 25 ug/ml by cup plate method; conditions: read-out: IZ
Escherichia coli [4] = assay: Antimicrobial activity against at Escherichia coli at 100 ug/ml by cup-plate method; conditions: read-out: IZ
Escherichia coli [5] = assay: Antimicrobial activity against at Escherichia coli at 50 ug/ml by cup-plate method; conditions: read-out: IZ
Escherichia coli [6] = assay: Antimicrobial activity against at Escherichia coli at 25 ug/ml by cup-plate method; conditions: read-out: IZ
Mus musculus [7] = assay: Analgesic activity in Mus musculus Swiss albino (mouse) assessed as increase in reaction time of paw licking or jump response at 50 mg/kg, po after 90 min by hot plate method
Mus musculus [8] = assay: Analgesic activity in Mus musculus Swiss albino (mouse) assessed as increase in reaction time of paw licking or jump response at 50 mg/kg, po after 60 min by hot plate method
Mus musculus [9] = assay: Analgesic activity in Mus musculus Swiss albino (mouse) assessed as increase in reaction time of paw licking or jump response at 50 mg/kg, po after 30 min by hot plate method
Rattus norvegicus [10] = assay: Anti-inflammatory activity in Rattus norvegicus Wistar albino (rat) assessed as protection against carrageenan-induced paw edema at 50 mg/kg after 3 hr
Rattus norvegicus [11] = assay: Anti-inflammatory activity in Rattus norvegicus Wistar albino (rat) assessed as protection against carrageenan-induced paw edema at 50 mg/kg after 2 hr
Rattus norvegicus [12] = assay: Anti-inflammatory activity in Rattus norvegicus Wistar albino (rat) assessed as protection against carrageenan-induced paw edema at 50 mg/kg after 90 min
Rattus norvegicus [13] = assay: Anti-inflammatory activity in Rattus norvegicus Wistar albino (rat) assessed as protection against carrageenan-induced paw edema at 50 mg/kg after 60 min
Rattus norvegicus [14] = assay: Anti-inflammatory activity in Rattus norvegicus Wistar albino (rat) assessed as protection against carrageenan-induced paw edema at 50 mg/kg after 30 min
Penicillium chrysogenum [15] = assay: Antimicrobial activity against at Penicillium chrysogenum at 100 ug/ml by cup-plate method; conditions: read-out: IZ
Penicillium chrysogenum [16] = assay: Antimicrobial activity against at Penicillium chrysogenum at 50 ug/ml by cup-plate method; conditions: read-out: IZ
Aspergillus niger [17] = assay: Antimicrobial activity against at Aspergillus niger at 100 ug/ml by cup-plate method; conditions: read-out: IZ
Aspergillus niger [18] = assay: Antimicrobial activity against at Aspergillus niger at 50 ug/ml by cup-plate method; conditions: read-out: IZ
Aspergillus niger [19] = assay: Antimicrobial activity against at Aspergillus niger at 25 ug/ml by cup-plate method; conditions: read-out: IZ
Penicillium chrysogenum [20] = assay: Antimicrobial activity against at Penicillium chrysogenum at 25 ug/ml by cup-plate method; conditions: read-out: IZ

SMILES	zone of inhibition at 100 µg/mL (Bacillus subtilis [1]) [mm]	zone of inhibition at 50 µg/mL (Bacillus subtilis [2]) [mm]	zone of inhibition at 25 µg/mL (Bacillus subtilis [3]) [mm]	zone of inhibition at 100 µg/mL (Escherichia coli [4]) [mm]	zone of inhibition at 50 µg/mL (Escherichia coli [5]) [mm]	zone of inhibition at 25 µg/mL (Escherichia coli [6]) [mm]	Activity (Mus musculus [7]) [%]	Activity (Mus musculus [8]) [%]	Activity (Mus musculus [9]) [%]	Activity (Rattus norvegicus [10]) [%]	Activity (Rattus norvegicus [11]) [%]	Activity (Rattus norvegicus [12]) [%]	Activity (Rattus norvegicus [13]) [%]	Activity (Rattus norvegicus [14]) [%]	zone of inhibition at 100 µg/mL (Penicillium chrysogenum [15]) [mm]	zone of inhibition at 50 µg/mL (Penicillium chrysogenum [16]) [mm]	zone of inhibition at 100 µg/mL (Aspergillus niger [17]) [mm]	zone of inhibition at 50 µg/mL (Aspergillus niger [18]) [mm]	zone of inhibition at 25 µg/mL (Aspergillus niger [19]) [mm]	zone of inhibition at 25 µg/mL (Penicillium chrysogenum [20]) [mm]
CC1(C)S[C@@H]2[C@H](NC(=O)[C@H](N)c3ccccc3)C(=O)N2[C@H]1C(=O)O [AMPICILLIN]	21.1	12.1	9.1	32.7	20.4	11.2														
O=C1c2ccccc2-c2noc(-c3ccc(Cl)cc3)c21	18.5	11.5	5.25	16	6.75	6	16.1	12.8	7.18	16.21	15.11	12.16	12	6.31	12	8.5	13	9.75	5.5	
COc1ccc(-c2onc3c2C(=O)c2ccccc2-3)cc1	14.8	5.5		20.2		5.5	8.04	5.13	3.06	9.21	12.32	16.38	12.21	7.71	19.6	12.7	17	11.7	7.25	5.35
COc1ccc2c(c1)c(CC(=O)O)c(C)n2C(=O)c1ccc(Cl)cc1 [INDOMETHACIN]										20.22	20.15	21.12	23.22	28.56						
OC(Cn1cncn1)(Cn1cncn1)c1ccc(F)cc1F [FLUCONAZOLE]															21.2	14.2	31.8	21.7	11.9	7.32
O=C1c2ccccc2-c2noc(-c3ccc([N+](=O)[O-])cc3)c21	14.5	6.75	4.5	18.5	13	5.5	8.55	5.91	3.95	17.21	16.21	18.51	13.35	10.92	15	11	16.2	13.5	4.75	4.5
COc1cc(-c2onc3c2C(=O)c2ccccc2-3)cc(OC)c1OC	18.8	11.5	5.25	27.8	16.5		12.54	9.75	4.48	26.32	29.15	29.14	22.38	17.21	19	9.25	19.2	11.2	6.49	5.5
Cc1ccc(-c2onc3c2C(=O)c2ccccc2-3)cc1	15	10.5	6.77	25.3	15	10	27.01	23.12	15.55	30.33	36.45	45.72	43.66	35.29	15.5	6.75	28	18.5	10.5	
O=C1c2ccccc2-c2noc(-c3cccc([N+](=O)[O-])c3)c21	13.5	7	4	17	13.2		14.2	10.38	5.44	6.44	7.44	5.52	3.99	2.02	13.5	7	17	13.2	4.25	
COc1ccc(-c2onc3c2C(=O)c2ccccc2-3)cc1OC	19.7	12.8		24.5	11	7.25	23.54	19.02	12.61	7.32	6.52	8.12	7.21	6.21	13.8	5.25	17.8	13.8	6.5	4.75
CN(C)c1ccc(-c2onc3c2C(=O)c2ccccc2-3)cc1	12	4.75		17.2	12		9.93	5.65	5.02	20.1	19.21	14.23	8.45	7.11	12.2	7.25	13	7.5	5.5	4
O=C1c2ccccc2-c2noc(-c3ccc(O)cc3)c21	17.5	11.2		13.8	5.25	4.75	27.87	23.74	16.52	33.45	36.33	42.6	41.46	31.16	14	6	21	13	6	4.35
COc1cccc(-c2onc3c2C(=O)c2ccccc2-3)c1O	16		6.75	21	14.7	10.2	16.43	11.44	6	30.41	34.32	37.62	32.22	25.44	16.6	10.5	29.6	16.5	10.8	5.35
O=C1c2ccccc2-c2noc(-c3ccccc3[N+](=O)[O-])c21	14.2	7.5	4.25	19.8	12.8	5.25	9.84	7.62	5.24	9.52	8.01	7.11	6.33	7.22	14.2	8.25	19	7.25		5.25
